What all share (assay type): biochemical
One test addresses PIM1 (Homo sapiens (Human), UniProt P11309). The test can be described thus: biochemical. On the procedure:
(§1) A fluorescent-labeled Pim-specific peptide substrate, was custom synthesized by American Peptide Company (Sunnyvale, Calif.). Reaction Buffer contained 10 mM HEPES, pH 7.2, 10 mM MgCl2, 0.01% Tween 20, 2 mM DTT. Termination Buffer contained 190 mM HEPES, pH 7.2, 0.015% Brij-35, 0.2% Coating Reagent 3 (Caliper Life Sciences, Hopkinton, Mass.), 20 mM EDTA. Separation Buffer contained 100 mM HEPES, pH 7.2, 0.015% Brij-35, 0.1% Coating Reagent 3, 1:200 Coating Reagent 8 (Caliper Life Sciences, Hopkinton, Mass.), 10 mM EDTA and 5% DMSO.
(§2) PIM reactions were carried out in a final volume of 10 μL per well in a 384-well plate. […] After 90 minutes of incubation at room temperature, the phosphorylation reaction was stopped by the addition of 10 μL Termination Buffer. The product and substrate in each independent reaction were separated on a 12-sipper microfluidic chip (Caliper Life Sciences, Hopkinton, Mass.) run on a Caliper LC3000® (Caliper Life Sciences, Hopkinton, Mass.). The separation of product and substrate was optimized by choosing voltages and pressure using Caliper's Optimizer software (Hopkinton, Mass.). […] Substrate conversion was calculated from the electropherogram using HTS Well Analyzer software (Caliper Life Sciences, Hopkinton, Mass.). Ki values for the test compound were calculated.

The target of a further test is PIM2 (Homo sapiens (Human), UniProt Q9P1W9). The test can be described thus: Pim kinase binding activity, Caliper LC3000 microfluidic peptide phosphorylation assay, PIM2. The settings on record: 10 μM ATP, 90 min, room temperature; read-out: PIM2 LC3K (KI). How it is done:
as §1, §2

The target in a further test is PIM3 (Homo sapiens (Human), UniProt Q86V86). The experiment in a line: Pim kinase binding activity, Caliper LC3000 microfluidic peptide phosphorylation assay, PIM3. The settings on record: 10 μM ATP, 90 min, room temperature; read-out: PIM3 LC3K (KI). How it is done:
as §1, §2

The mark [1] stands for this setting: 10 μM ATP, 90 min, room temperature, read-out: PIM1 LC3K (KI).

Like-named read-outs stand apart in the source and are kept apart here.

Chain of PIM1 (P11309 whole entry): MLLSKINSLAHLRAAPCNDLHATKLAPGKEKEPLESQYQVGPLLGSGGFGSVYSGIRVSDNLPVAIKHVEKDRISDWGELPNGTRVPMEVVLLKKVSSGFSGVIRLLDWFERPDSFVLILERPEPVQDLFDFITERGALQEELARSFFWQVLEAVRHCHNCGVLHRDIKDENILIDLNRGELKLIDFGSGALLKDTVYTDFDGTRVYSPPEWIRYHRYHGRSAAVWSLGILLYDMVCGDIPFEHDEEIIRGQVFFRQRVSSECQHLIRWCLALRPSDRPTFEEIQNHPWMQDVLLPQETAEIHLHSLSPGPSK
Chain of PIM2 (Q9P1W9 whole entry): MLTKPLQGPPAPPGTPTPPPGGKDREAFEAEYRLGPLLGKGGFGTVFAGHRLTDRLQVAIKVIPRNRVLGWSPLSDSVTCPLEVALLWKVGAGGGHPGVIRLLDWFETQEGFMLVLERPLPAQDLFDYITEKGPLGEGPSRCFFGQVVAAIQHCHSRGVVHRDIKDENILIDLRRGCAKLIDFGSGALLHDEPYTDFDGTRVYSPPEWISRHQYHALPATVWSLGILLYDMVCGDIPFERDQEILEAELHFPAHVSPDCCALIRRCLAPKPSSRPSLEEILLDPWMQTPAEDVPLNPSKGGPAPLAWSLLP

On to `Cc1ccc(-n2ncc3cnc(-c4cnn(CC(F)(F)F)c4)cc32)nc1N1CCNC[C@H](O)C1` (single isomer, unassigned) [Compound 263], for which the values for the Ki at PIM1 (setting [1]), at PIM2 and on PIM3 were 0.253 nM, 6.51 nM and 0.536 nM, respectively.

Regarding `Cn1cc(-c2cc3c(cn2)cnn3-c2cccc(N3CCNCC3)n2)cn1` [Compound 102, 6-(1-methyl-1H-pyrazol-4-yl)-1-(6-(piperazin-1-yl)pyridin-2-yl)-1H-pyrazolo[4,3-c]pyridine], the Ki (commonly the equilibrium dissociation constant of an inhibitor or competing ligand from its target) on PIM1 (setting [1]) came to 0.623 nM; on PIM2, 12.1 nM.

With `c1cc(N2CCNCC2)nc(-n2ncc3cnc(-c4cncc(C5CC5)c4)cc32)c1` [Compound 111, 6-(5-cyclopropylpyridin-3-yl)-1-(6-(piperazin-1-yl)pyridin-2-yl)-1H-pyrazolo[4,3-c]pyridine], the Ki worked out at 0.165 nM on PIM1 (setting [1]), 9.11 nM at PIM2 and 0.181 nM at PIM3.

As to `C[C@H]1CN(c2cccc(-n3ncc4cnc(-c5cncc(C6COC6)c5)cc43)n2)CCN1` [Compound 113, (S)-1-(6-(3-methylpiperazin-1-yl)pyridin-2-yl)-6-(5-(oxetan-3-yl)pyridin-3-yl)-1H-pyrazolo[4,3-c]pyridine], the Ki at PIM1 (setting [1]) worked out at 0.107 nM; on PIM2, 10.1 nM; at PIM3 it was 0.186 nM.

`c1cc(N2CCNCC2)nc(-n2ncc3cnc(-c4cncc(C5COC5)c4)cc32)c1` [Compound 114, 6-(5-(oxetan-3-yl)pyridin-3-yl)-1-(6-(piperazin-1-yl)pyridin-2-yl)-1H-pyrazolo[4,3-c]pyridine]: the values for the Ki on PIM1 (setting [1]), at PIM2 and at PIM3 were 0.479 nM, 16.9 nM and 0.652 nM, respectively.

Regarding `OC1CNCCN(c2cccc(-n3ncc4cnc(-c5cncc(C6CC6)c5)cc43)n2)C1` (stereo not shown) [Compound 115, 1-(6-(6-(5-cyclopropylpyridin-3-yl)-1H-pyrazolo[4,3-c]pyridin-1-yl)pyridin-2-yl)-1,4-diazepan-6-ol], the Ki on PIM1 (setting [1]) came to 0.155 nM; at PIM2 it was 14.9 nM; on PIM3, 0.306 nM.

With `OC1CNCCN(c2cccc(-n3ncc4cnc(-c5cncc(C6COC6)c5)cc43)n2)C1` (stereo not shown) [Compound 116, 1-(6-(6-(5-(oxetan-3-yl)pyridin-3-yl)-1H-pyrazolo[4,3-c]pyridin-1-yl)pyridin-2-yl)-1,4-diazepan-6-ol], the Ki on PIM1 (setting [1]) is 0.294 nM; at PIM2, 27.6 nM; at PIM3 it was 0.405 nM.

With `c1cc(N2CCCNCC2)nc(-n2ncc3cnc(-c4cncc(C5COC5)c4)cc32)c1` [Compound 118, 1-(6-(1,4-diazepan-1-yl)pyridin-2-yl)-6-(5-(oxetan-3-yl)pyridin-3-yl)-1H-pyrazolo[4,3-c]pyridine], the inhibition constant Ki came to 0.08 nM on PIM1 (setting [1]), 9.04 nM on PIM2 and 0.117 nM on PIM3.

Take `Cc1cc(-c2cc3c(cn2)cnn3-c2cccc(N3CCNCC3)n2)sn1` [Compound 119, 3-methyl-5-[1-(6-piperazin-1-yl-2-pyridyl)pyrazolo[4,3-c]pyridin-6-yl]isothiazole]: the inhibitory constant (Ki) is 0.426 nM on PIM1 (setting [1]), 8.49 nM on PIM2 and 0.307 nM on PIM3.

Take `CCn1cc(-c2cc3c(cn2)cnn3-c2cccc(N3CCN[C@@H](C)C3)n2)cn1` [Compound 126, (S)-6-(1-ethyl-1H-pyrazol-4-yl)-1-(6-(3-methylpiperazin-1-yl)pyridin-2-yl)-1H-pyrazolo[4,3-c]pyridine]: the Ki at PIM1 (setting [1]) stood at 0.349 nM; on PIM2, 7.36 nM; at PIM3, 0.349 nM.

Turning to `CCn1cc(-c2cc3c(cn2)cnn3-c2cccc(N3CC[C@H](O)C3)n2)cn1` [Compound 127, (S)-1-(6-(6-(1-ethyl-1H-pyrazol-4-yl)-1H-pyrazolo[4,3-c]pyridin-1-yl)pyridin-2-yl)pyrrolidin-3-ol], the figures for the Ki on PIM1 (setting [1]) and on PIM3 were 3.04 nM and 1.31 nM, respectively.

Regarding `CCn1cc(-c2cc3c(cn2)cnn3-c2cccc(N3CC[C@@H](O)C3)n2)cn1` [Compound 128, (R)-1-(6-(6-(1-ethyl-1H-pyrazol-4-yl)-1H-pyrazolo[4,3-c]pyridin-1-yl)pyridin-2-yl)pyrrolidin-3-ol], the Ki on PIM1 (setting [1]) came out at 7.22 nM; on PIM3, 4.39 nM.

On to `CCn1cc(-c2cc3c(cn2)cnn3-c2cccc(N3CCC(O)CC3)n2)cn1` [Compound 129, 1-(6-(6-(1-ethyl-1H-pyrazol-4-yl)-1H-pyrazolo[4,3-c]pyridin-1-yl)pyridin-2-yl)piperidin-4-ol], for which the inhibition constant Ki worked out at 3.47 nM on PIM1 (setting [1]), 28.3 nM on PIM2 and 2.46 nM at PIM3.

For the molecule `CCn1cc(-c2cc3c(cn2)cnn3-c2cccc(N3CCNC(C)(C)C3)n2)cn1` [Compound 131, 1-(6-(3,3-dimethylpiperazin-1-yl)pyridin-2-yl)-6-(1-ethyl-1H-pyrazol-4-yl)-1H-pyrazolo[4,3-c]pyridine], the results for the Ki at PIM1 (setting [1]), at PIM2 and on PIM3 were 0.58 nM, 15.9 nM and 0.385 nM, respectively.

On to `CCn1cc(-c2cc3c(cn2)cnn3-c2cccc(N3CCC(N)CC3)n2)cn1` [Compound 132, 1-(6-(6-(1-ethyl-1H-pyrazol-4-yl)-1H-pyrazolo[4,3-c]pyridin-1-yl)pyridin-2-yl)piperidin-4-amine], for which the Ki on PIM1 (setting [1]) stood at 1.56 nM; at PIM2, 19.3 nM; on PIM3, 0.87 nM.

On to `Cc1cncc(-c2cc3c(cn2)cnn3-c2ccc(C(F)(F)F)c(N3CCC[C@H](N)C3)n2)n1` [Compound 220, (S)-1-(6-(6-(6-methylpyrazin-2-yl)-1H-pyrazolo[4,3-c]pyridin-1-yl)-3-(trifluoromethyl)pyridin-2-yl)piperidin-3-amine], for which the Ki on PIM2 was 0.115 nM; at PIM3, 0.009 nM.

In the case of `Cn1cc(-c2cc3c(cn2)cnn3-c2cccc(N3CCCNCC3)n2)cn1` [Compound 224, 1-(6-(1,4-Diazepan-1-yl)pyridin-2-yl)-6-(1-methyl-1H-pyrazol-4-yl)-1H-pyrazolo[4,3-c]pyridine], the Ki was found to be 5.01 nM on PIM2 and 0.097 nM at PIM3.

With `Cc1cncc(-c2cc3c(cn2)cnn3-c2cccc(N3CCC[C@H](N)C3=O)n2)n1` [Compound 225, (3S)-3-amino-1-[6-[6-(6-methylpyrazin-2-yl)pyrazolo[4,3-c]pyridin-1-yl]-2-pyridyl]piperidin-2-one], the Ki was 4.29 nM on PIM2 and 0.267 nM at PIM3.

Consider `Cc1cncc(-c2cc3c(cn2)cnn3-c2cccc(C3CNCCC3(F)F)n2)n1` (stereo not shown) [Compound 259, 1-[6-(4,4-difluoro-3-piperidyl)-2-pyridyl]-6-(6-methylpyrazin-2-yl)pyrazolo[4,3-c]pyridine], for which the Ki at PIM1 (setting [1]) was 0.053 nM; at PIM2 it was 0.242 nM.

In the case of `Cn1cc(-c2cc3c(cn2)cnn3-c2cccc(N3CC4(CNC4)C3)n2)cn1` [Compound 268, 1-(6-(2,6-Diazaspiro[3.3]heptan-2-yl)pyridin-2-yl)-6-(1-methyl-1H-pyrazol-4-yl)-1H-pyrazolo[4,3-c]pyridine], the results for the Ki on PIM1 (setting [1]) and on PIM2 were 11.5 nM and 149 nM, respectively.

Take `Cc1cncc(-c2cc3c(cn2)cnn3-c2ccc(=O)n([C@@H]3CCCNC3)n2)n1` [Compound 290, (R)-6-(6-(6-methylpyrazin-2-yl)-1H-pyrazolo[4,3-c]pyridin-1-yl)-2-(piperidin-3-yl)pyridazin-3(2H)-one]: the Ki on PIM1 stood at 16.3 nM; on PIM2 it was 43.2 nM.

Turning to `CNc1cccc(-n2ncc3cnc(-c4cncc(C)n4)cc32)n1` [Compound 297, N-methyl-6-(6-(6-methylpyrazin-2-yl)-1H-pyrazolo[4,3-c]pyridin-1-yl)pyridin-2-amine], the Ki stood at 3.43 nM at PIM2 and 0.235 nM at PIM3.

As for `Cc1cncc(-c2cc3c(cn2)cnn3-c2cccc(C(=O)N3CCC[C@H](N)C3)n2)n1` [Compound 302, (S)-(3-aminopiperidin-1-yl)(6-(6-(6-methylpyrazin-2-yl)-1H-pyrazolo[4,3-c]pyridin-1-yl)pyridin-2-yl)methanone], the Ki was found to be 183 nM at PIM2 and 20.1 nM at PIM3.

Regarding `Cc1cncc(-c2cc3c(cn2)cnn3-c2cccc(C(=O)N3CCC[C@@H](N)C3)n2)n1` [Compound 303, (R)-(3-aminopiperidin-1-yl)(6-(6-(6-methylpyrazin-2-yl)-1H-pyrazolo[4,3-c]pyridin-1-yl)pyridin-2-yl)methanone], the figures for the Ki on PIM2 and on PIM3 were 193 nM and 15.6 nM, respectively.

With `c1ccc(-n2ncc3cnc(-c4cncc(NC5CNC5)n4)cc32)nc1` [Compound 308, N-(azetidin-3-yl)-6-(1-(pyridin-2-yl)-1H-pyrazolo[4,3-c]pyridin-6-yl)pyrazin-2-amine], the results for the Ki on PIM2 and at PIM3 were 4.31 nM and 0.4 nM, respectively.

For the molecule `Cc1cncc(-c2cc3c(cn2)cnn3-c2cccc(OC3CCCC(N)C3)n2)n1` (stereo not shown) [Compound 310, 3-(6-(6-(6-methylpyrazin-2-yl)-1H-pyrazolo[4,3-c]pyridin-1-yl)pyridin-2-yloxy)cyclohexanamine], the figures for the Ki at PIM1 (setting [1]) and on PIM3 were 1.64 nM and 1.63 nM, respectively.

These data come from patent US9434725B2, “5-azaindazole compounds and methods of use” (priority 2012, dated 2016).
